According to patent EP0942911B1, “BENZOPYRANOPYRROLE AND BENZOPYRANOPYRIDINE ALPHA-1 ADRENERGIC COMPOUNDS” (Abbott Laboratories, priority 1996, dated 1998):
Structures can show the parent of a compound that is named as a salt. Where two headings read alike, the source gives them in different places.

What was measured:
[1] = target: T1, α-1b adrenoreceptor (Mesocricetus auratus, UniProt P18841); experiment: biochemical; assay type: binding, hamster; conditions: read-out: Radioligand Binding (Ki, nM) 1b (Hamster)
T1 sequence (P18841 1-515): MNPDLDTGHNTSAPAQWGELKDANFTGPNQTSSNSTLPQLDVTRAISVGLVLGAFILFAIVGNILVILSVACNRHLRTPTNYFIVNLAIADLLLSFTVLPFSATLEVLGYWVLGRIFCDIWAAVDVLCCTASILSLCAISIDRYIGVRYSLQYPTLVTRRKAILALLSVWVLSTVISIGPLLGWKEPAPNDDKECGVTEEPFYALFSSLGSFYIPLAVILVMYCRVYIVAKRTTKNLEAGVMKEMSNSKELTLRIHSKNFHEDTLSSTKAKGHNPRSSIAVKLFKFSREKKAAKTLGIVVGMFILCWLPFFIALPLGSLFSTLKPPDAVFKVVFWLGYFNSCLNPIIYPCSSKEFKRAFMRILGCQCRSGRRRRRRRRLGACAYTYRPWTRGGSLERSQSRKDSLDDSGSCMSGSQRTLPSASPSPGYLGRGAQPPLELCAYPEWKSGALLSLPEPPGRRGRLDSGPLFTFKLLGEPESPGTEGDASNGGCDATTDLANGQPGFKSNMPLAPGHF
Summary of the method: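 Cloned α-1a (bovine), α-1b (hamster) and α-1d (rat) adrenoreceptors were stably expressed in mouse LTK fibroblasts; membranes from roller-bottle cultures were used. Native α-1A sites came from rat submaxillary gland. Radioligand binding followed Greengrass and Bremner, with liquid scintillation read-out.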

[2] = target: T2, α-1A adrenoreceptor (rat submaxillary gland) (Rattus norvegicus, UniProt P43140); experiment: biochemical; assay type: binding; conditions: read-out: Radioligand Binding (Ki, nM) 1A (Rat)
T2 sequence (P43140 1-466): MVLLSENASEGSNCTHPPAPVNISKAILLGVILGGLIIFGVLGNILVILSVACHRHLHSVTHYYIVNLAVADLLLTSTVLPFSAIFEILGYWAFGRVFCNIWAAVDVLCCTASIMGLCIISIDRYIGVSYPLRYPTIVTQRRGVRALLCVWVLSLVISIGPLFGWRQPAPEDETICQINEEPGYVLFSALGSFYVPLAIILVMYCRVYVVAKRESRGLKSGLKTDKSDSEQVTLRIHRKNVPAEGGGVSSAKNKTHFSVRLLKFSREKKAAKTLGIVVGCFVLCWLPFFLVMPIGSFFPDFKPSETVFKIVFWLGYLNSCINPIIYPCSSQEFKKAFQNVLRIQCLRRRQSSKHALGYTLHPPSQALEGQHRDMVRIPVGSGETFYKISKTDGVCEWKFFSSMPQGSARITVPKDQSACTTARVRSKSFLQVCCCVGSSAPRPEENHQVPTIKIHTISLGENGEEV
Summary of the method: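 Radioligand binding to α-1A sites in membrane homogenates of rat submaxillary gland, run after Greengrass and Bremner. Bound radioactivity counted by liquid scintillation.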

[3] = [3H]-prazosin radioligand, cloned receptor in LTK cell membranes
[4] = [3H]-prazosin radioligand, rat submaxillary gland membranes

Compound | Ki [1, 3] | Ki [2, 4] | Ki [1] | Ki [2]
COc1cccc2c1[C@@H]1CN(CCCCn3c(=O)[nH]c4c(sc5c(OC)ccnc54)c3=O)C[C@H]1CO2 [Example 17, 3-[4-((3aS,9bR)-trans-9-Methoxy-1,2,3,3a,4,9b-hexahydro-[1]-benzopyrano[3,4-c]pyrrol-2-yl)butyl]-6-methoxy-pyrido[2',3':4,5]thieno[3,2-d]pyrimidine-2,4(1H,3H)-dione dihydrochloride] | 1.25 nM | 0.175 nM |  | 
COc1cccc2c1[C@@H]1CN(CCCCn3c(=O)[nH]c4c(sc5ccc(Cl)nc54)c3=O)C[C@H]1CO2 [Example 25, 3-[4-((3aS,9bR)-trans-9-Methoxy-1,2,3,3a,4,9b-hexahydro-[1]-benzopyrano[3,4-c]pyrrol-2-yl)butyl]-8-chloro-pyrido[2',3':4,5]thieno[3,2-d]pyrimidine-2,4(1H,3H)-dione dihydrochloride] | 0.591 nM | 0.061 nM |  | 
COc1cccc2c1[C@@H]1CN(CCCCn3c(=O)[nH]c4c(sc5ccncc54)c3=O)C[C@@H]1CO2 [Example 28, 3-[4-((3aR,9bR)-cis-9-Methoxy-1,2,3,3a,4,9b-hexahydro-[1]-benzopyrano[3,4-c]pyrrol-2-yl)butyl]-pyrido[3',4':4,5]thieno[3,2-d]pyrimidine-2,4(1H,3H)-dione dihydrochloride] | 3.69 nM | 0.273 nM |  | 
COc1ccc2sc3c(=O)n(CCCCN4C[C@H]5COc6cccc(OC)c6[C@@H]5C4)c(=O)[nH]c3c2n1 [Example 26, 3-[4-((3aS,9bR)-trans-9-Methoxy-1,2,3,3a,4,9b-hexahydro-[1]-benzopyrano[3,4-c]pyrrol-2-yl)butyl]-8-methoxy-pyrido[2',3':4,5]thieno[3,2-d]pyrimidine-2,4(1H,3H)-dione hydrochloride] | 0.376 nM | 0.09 nM |  | 
COc1cccc2c1[C@@H]1CN(CCCCn3c(=O)[nH]c4c(sc5nc(Cl)ccc54)c3=O)C[C@H]1CO2 [Example 47, 3-[4-((3aS,9bR)-trans-9-Methoxy-1,2,3,3a,4,9b-hexahydro-[1]-benzopyrano[3,4-c]pyrrol-2-yl)butyl]-7-chloro-pyrido[3',2':4,5]thieno[3,2-d]pyrimidine-2,4(1H,3H)-dione hydrochloride] | 2.4 nM | 0.245 nM |  | 
3-[4-((3aR,9bR)-cis-9-Methoxy-1,2,3,3a,4,9b-hexahydro-[1]-benzopyrano[3,4-c]pyrrol-2-yl]butyl]-7-methoxy-pyrido[3',2':4,5]thieno[3,2-d]pyrimidine-2,4(1H,3H)-dione hydrochloride [Example 33] | 10.5 nM | 0.811 nM |  | 
COc1cccc2c1[C@@H]1CCN(CCCCn3c(=O)[nH]c4c(sc5ncc(Cl)nc54)c3=O)C[C@H]1CO2 [Example 97, 3-[4-((4aS,10bR)-trans-10-Methoxy-1,3,4,4a,5,10b-hexahydro-2H-[1]-benzopyrano[3,4-c]pyrido-3-yl)butyl]-8-chloro-pyrazino[2',3':4,5]thieno[3,2-d]pyrimidine-2,4(1H,3H)-dione dihydrochloride] | 4.7 nM | 0.892 nM |  | 
COc1ccc2c(c1)OC[C@H]1CN(CCn3c(=O)[nH]c4c(sc5ccccc54)c3=O)C[C@@H]21.Cl (racemic) [Example 63, 3-[2-((±)-cis-7-Methoxy-1,2,3,3a,4,9b-hexahydro-[1]-benzopyrano[3,4-c]pyrrol-2-yl)ethyl]-[1]benzthieno[3,2-d]pyrimidine-2,4(1H,3H)-dione hydrochloride] |  |  | 92.2 nM | 51.2 nM
COc1cccc2c1[C@@H]1CN(CCCCn3c(=O)[nH]c4c(sc5c(OC)ccnc54)c3=O)C[C@@H]1CO2 [Example 18, 3-[4-((3aR,9bR)-cis-9-Methoxy-1,2,3,3a,4,9b-hexahydro[1]-benzopyrano[3,4-c]pyrrol-2-yl)butyl]-6-methoxy-pyrido[2',3':4,5]thieno[3,2-d]pyrimidine-2,4(1H,3H)-dione dihydrochloride] | 5.06 nM | 0.284 nM |  | 
COc1ccc2c(c1)OC[C@H]1CN(CCCn3c(=O)[nH]c4c(sc5ccccc54)c3=O)C[C@@H]21.Cl (racemic) [Example 64, 3-[3-((±)-cis-7-Methoxy-1,2,3,3a,4,9b-hexahydro-[1]-benzopyrano[3,4-c]pyrrol-2-yl)propyl]-[1]benzthieno[3,2-d]pyrimidine-2,4(1H,3H)-dione hydrochloride] |  |  | 9.3 nM | 4.2 nM
